Experimental data: patent publication US20230365602A1, “COMPOUND FOR USE IN THE TREATMENT OF PROTOZOAL DISEASES AND PROCESS FOR PRODUCTION OF SAID COMPOUND” (QUADREL S.R.L., priority 2020, published 2023)
Values joined by “and” are separate entries in the source; they are usually repeats but may differ in a detail not shown here. Equal values may be shown once. “Also recorded” adds a separate entry of the source. Read-outs that look alike come from different tables or passages of the source.

What was measured:
[1] = target: HDAC6 (Homo sapiens, UniProt Q9UBN7); assay: HDAC6 activity inhibition; type: biochemical
Chain of HDAC6 (Q9UBN7 whole entry, species assumed): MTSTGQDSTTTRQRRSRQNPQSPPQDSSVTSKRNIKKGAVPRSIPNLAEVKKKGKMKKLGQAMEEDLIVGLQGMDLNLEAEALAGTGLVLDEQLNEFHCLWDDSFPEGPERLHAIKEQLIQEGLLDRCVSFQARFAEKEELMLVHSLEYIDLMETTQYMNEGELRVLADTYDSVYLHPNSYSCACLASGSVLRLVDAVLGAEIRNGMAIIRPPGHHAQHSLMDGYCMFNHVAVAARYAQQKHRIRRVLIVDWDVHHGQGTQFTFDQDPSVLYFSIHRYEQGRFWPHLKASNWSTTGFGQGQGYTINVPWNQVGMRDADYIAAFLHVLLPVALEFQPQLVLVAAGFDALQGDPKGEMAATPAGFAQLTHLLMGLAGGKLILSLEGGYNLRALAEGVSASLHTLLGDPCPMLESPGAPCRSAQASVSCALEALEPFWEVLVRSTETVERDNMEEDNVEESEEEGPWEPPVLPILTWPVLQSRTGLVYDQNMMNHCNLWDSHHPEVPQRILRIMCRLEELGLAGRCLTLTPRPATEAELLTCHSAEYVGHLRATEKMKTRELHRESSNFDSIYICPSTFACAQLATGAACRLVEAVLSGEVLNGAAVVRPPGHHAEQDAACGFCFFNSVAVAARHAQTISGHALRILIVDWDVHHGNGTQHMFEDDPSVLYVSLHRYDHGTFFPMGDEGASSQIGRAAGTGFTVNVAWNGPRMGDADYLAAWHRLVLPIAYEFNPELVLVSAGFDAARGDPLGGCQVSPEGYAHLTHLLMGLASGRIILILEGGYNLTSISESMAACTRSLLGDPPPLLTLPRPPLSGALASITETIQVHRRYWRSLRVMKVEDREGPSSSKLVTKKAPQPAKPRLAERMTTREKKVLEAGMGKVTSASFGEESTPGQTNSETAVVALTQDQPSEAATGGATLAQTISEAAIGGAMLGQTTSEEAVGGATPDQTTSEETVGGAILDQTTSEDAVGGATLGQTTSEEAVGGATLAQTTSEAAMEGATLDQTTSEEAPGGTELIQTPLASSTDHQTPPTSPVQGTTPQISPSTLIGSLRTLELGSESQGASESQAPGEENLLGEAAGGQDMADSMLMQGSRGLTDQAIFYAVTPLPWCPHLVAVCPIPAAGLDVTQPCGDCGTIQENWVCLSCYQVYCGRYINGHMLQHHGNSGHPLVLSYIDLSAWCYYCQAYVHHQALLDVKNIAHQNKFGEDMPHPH

[2] = target: CYP3A4 (Homo sapiens, UniProt P08684); assay: Early toxicity: CYP3A4 inhibition; type: in vitro ADME; details: human, 10 μM
Chain of CYP3A4 (P08684 whole entry): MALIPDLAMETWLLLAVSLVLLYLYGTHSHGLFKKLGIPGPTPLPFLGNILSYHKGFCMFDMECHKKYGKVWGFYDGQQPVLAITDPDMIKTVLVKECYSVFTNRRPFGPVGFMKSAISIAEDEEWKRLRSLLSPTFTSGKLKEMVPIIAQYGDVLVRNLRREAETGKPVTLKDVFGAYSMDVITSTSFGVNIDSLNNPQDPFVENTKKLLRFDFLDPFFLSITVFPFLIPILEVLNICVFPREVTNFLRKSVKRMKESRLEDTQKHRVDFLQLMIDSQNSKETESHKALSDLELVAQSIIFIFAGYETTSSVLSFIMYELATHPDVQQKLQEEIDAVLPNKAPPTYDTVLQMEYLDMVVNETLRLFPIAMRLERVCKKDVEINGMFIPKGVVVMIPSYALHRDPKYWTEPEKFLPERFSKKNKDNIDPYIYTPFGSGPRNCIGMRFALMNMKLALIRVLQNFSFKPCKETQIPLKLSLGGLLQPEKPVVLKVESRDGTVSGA

[3] = tested on: Human Erythrocytes; assay: In vitro Hemolytic Activity in Human Erythrocytes; type: cell-based; details: for Hemolysis at 100 μM (%) / Hemolysis, HC50: human erythrocytes
Experimental: The assay, which is an indicator of the toxic insult of a compound on the erythrocyte membrane is performed essentially as described in (Calogeropoulou T. et al., J. Med. Chem. 2008, 51, 897-908). […] [table]

[4] = tested on: T. brucei brucei Lister 427 expressing red-shifted luciferase; assay: Efficacy in HAT mice model (acute T. b. brucei infection), live imaging; type: in vivo, BALB/c mice; details: for infection outcome (words): 50 mg/kg/day PO, 7 consecutive days
Excerpt: (B) Overall evolution of parasite burden assessed by live imaging using IVIS Lumina LT (Perkin Elmer) during and after treatment. T. b. brucei Lister 427 expressing red-shifted luciferase was used in these experiments. DX is the day post treatment. (C) Quantification of bioluminescent signal plotted as average radiance (p/s/cm^2/sr) during and after treatment.
In addition, 5-cyclopentadecylpentyl (2-(trimethylammonio) ethyl) phosphate (19) was effective per os in vivo against T. brucei acute model of infection and also against the long lasting chronic infection model. […] The daily treatment with 50 mg/kg for 13 days lead to a significant decrease of infection and increase in animal survival. […] Altogether 5-cyclopentadecylpentyl (2-(trimethylammonio) ethyl) phosphate (19) is effective in the BALB/c infection model for T. brucei being a possible therapeutical option both for HAT stage I and II.
T. brucei brucei Lister 427 expressing red-shifted luciferase was used in these experiments as described for L. infantum in vivo infection in (Graça N A et al., Antimicrob Agents Chemother. 2016 Mar. 25; 60(4):2532-6). The overall evolution of parasite burden assessed by live imaging using IVIS Lumina LT (Perkin Elmer) during and after treatment. […] To confirm this possibility, the treated mice immune system was suppressed with cyclophosphamide. […] The advantage over pentamidine is the oral administration of compound 19 versus ip administration of pentamidine.

[5] = tested on: mitochondria; assay: Early toxicity: mitochondrial toxicity; type: cell-based; details: for Ang % Toxicity Mitochondria: Table 5
[6] = tested on: L. donovani 1SR intracellular amastigotes; assay: Anti-leishmanial activity, L. donovani intracellular amastigotes; type: cell-based; details: Leishmania donovani; read-out: L. donovani 1SR intracellular amastigotes IC50 ± SEM
Excerpt: (§1) The in vitro antiparasitic activity of compound 5-cyclopentadecylpentyl (2-(trimethylammonio)ethyl) phosphate (19) against L. infantum (2 species), L. amazonensis, L. donovani and L. major is presented in Table 3, as well as the toxicity against the human monocytic cell Line THP1 and PMA-differentiated THP-1 cells.

[7] = target: T1, hERG channel (Homo sapiens, UniProt Q12809); assay: in vitro
T1 sequence (Q12809 whole entry): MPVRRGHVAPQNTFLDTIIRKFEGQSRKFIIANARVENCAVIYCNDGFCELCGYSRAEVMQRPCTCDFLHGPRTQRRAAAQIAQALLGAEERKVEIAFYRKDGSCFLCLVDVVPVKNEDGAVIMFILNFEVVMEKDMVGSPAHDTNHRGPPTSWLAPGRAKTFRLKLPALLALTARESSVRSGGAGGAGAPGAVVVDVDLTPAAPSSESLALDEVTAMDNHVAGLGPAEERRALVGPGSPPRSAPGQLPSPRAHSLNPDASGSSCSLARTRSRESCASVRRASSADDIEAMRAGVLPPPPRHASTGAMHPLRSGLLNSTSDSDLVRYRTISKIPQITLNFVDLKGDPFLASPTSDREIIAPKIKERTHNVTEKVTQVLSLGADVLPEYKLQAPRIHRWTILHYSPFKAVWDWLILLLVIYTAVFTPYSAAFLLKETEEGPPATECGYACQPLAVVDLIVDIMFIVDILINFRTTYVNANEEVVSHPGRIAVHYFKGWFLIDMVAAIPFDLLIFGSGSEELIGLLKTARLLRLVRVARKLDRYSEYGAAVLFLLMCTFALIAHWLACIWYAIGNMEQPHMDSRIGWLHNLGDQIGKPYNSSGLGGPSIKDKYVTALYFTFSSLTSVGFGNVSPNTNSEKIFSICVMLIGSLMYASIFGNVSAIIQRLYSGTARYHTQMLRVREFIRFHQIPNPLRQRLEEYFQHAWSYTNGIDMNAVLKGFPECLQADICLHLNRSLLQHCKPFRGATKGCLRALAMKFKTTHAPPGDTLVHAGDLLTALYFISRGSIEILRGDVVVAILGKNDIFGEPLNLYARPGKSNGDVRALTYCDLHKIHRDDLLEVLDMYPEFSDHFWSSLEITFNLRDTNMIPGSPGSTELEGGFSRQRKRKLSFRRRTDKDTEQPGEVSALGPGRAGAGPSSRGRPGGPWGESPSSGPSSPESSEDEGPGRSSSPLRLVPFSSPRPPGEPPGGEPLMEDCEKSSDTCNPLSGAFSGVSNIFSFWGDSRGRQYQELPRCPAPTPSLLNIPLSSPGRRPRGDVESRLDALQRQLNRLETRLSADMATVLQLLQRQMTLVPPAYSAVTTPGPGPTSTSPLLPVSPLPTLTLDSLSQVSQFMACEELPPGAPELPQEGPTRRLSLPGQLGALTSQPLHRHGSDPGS

[8] = target: HDAC4 (Homo sapiens, UniProt P56524); assay: HDAC4 activity inhibition; type: biochemical
Chain of HDAC4 (P56524 whole entry, species assumed): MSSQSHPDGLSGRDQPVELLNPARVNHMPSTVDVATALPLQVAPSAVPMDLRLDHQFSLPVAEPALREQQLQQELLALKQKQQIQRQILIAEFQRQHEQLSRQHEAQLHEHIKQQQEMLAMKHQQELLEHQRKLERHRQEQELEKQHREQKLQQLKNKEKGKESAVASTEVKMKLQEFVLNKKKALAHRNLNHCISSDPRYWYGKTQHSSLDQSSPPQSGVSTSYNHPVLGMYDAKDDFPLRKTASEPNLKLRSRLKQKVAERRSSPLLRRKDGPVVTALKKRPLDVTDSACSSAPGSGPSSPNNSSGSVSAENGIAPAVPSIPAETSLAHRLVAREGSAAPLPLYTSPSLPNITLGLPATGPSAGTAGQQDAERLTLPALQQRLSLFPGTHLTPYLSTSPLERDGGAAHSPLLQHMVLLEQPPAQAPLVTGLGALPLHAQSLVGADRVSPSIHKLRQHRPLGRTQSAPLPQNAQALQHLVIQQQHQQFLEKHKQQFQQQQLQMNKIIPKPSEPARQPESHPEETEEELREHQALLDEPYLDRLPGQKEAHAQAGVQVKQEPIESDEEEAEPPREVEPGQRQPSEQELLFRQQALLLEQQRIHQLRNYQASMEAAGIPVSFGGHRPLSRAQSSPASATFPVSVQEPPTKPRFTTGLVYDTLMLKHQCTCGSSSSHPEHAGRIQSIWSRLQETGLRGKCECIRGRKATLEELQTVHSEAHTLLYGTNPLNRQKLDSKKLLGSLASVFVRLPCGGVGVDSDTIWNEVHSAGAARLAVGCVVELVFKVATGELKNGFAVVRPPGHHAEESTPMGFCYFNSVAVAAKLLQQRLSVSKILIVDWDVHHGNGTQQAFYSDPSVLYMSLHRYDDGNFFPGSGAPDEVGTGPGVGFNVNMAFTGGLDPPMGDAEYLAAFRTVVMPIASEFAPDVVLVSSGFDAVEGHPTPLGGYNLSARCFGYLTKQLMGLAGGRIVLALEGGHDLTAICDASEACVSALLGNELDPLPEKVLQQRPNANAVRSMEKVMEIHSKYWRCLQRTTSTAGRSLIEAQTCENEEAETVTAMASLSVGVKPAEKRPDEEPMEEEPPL

[9] = target: CYP2D6 (Homo sapiens, UniProt P10635); assay: Early toxicity: CYP2D6 inhibition; type: in vitro ADME; details: human, mean ± SD, Table 4a
Chain of CYP2D6 (P10635 whole entry): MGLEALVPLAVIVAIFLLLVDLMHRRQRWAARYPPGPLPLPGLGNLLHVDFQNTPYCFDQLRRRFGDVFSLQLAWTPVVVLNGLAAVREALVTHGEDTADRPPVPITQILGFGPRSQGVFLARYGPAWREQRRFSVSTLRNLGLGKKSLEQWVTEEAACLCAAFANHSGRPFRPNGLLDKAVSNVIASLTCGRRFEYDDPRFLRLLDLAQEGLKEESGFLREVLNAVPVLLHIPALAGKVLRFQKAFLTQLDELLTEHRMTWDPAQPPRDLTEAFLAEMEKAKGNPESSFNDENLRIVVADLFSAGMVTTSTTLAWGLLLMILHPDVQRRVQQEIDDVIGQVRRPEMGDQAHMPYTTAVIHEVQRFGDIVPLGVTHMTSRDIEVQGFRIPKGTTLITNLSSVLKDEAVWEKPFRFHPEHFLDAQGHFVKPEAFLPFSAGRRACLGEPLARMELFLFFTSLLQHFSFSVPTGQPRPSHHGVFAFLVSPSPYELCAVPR

[10] = target: CYP2C9 (Homo sapiens, UniProt P11712); assay: Early toxicity: CYP2C9 inhibition; type: in vitro ADME
Chain of CYP2C9 (P11712 whole entry): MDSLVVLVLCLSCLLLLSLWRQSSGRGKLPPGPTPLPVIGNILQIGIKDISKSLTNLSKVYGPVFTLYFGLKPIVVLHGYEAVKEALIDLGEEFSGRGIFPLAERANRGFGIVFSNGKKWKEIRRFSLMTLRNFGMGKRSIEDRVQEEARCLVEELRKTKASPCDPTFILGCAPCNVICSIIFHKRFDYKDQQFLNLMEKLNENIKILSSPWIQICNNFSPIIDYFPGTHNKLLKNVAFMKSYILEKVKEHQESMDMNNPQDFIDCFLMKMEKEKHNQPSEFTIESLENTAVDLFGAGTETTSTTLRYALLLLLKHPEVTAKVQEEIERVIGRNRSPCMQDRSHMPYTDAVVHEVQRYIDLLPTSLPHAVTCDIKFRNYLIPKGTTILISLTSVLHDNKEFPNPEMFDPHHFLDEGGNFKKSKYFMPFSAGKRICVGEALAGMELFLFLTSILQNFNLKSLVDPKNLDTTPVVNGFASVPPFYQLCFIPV

[11] = target: T1, hERG channel
[12] = Snapshot pharmacokinetics in plasma after oral gavage; type: in vivo, mice
Experimental: Pharmacology of 5-cyclopentadecylpentyl (2-(trimethylammonio)ethyl) phosphate (19) in mice.
Blood samples were collected from the tail vein at 0, 0.5, 0.75, 1, 3, 24 and 72 hours into heparinized tubes. Moreover, biodistribution of the molecule, 72h after administration, was determined in several organs of the treated mice, namely brain, liver, spleen, kidney, heart and bone marrow. […] J Chromatogr B, 865: 55-62) by liquid chromatography mass spectrometry (LC-MS/MS).

[13] = Maximum tolerated dose and dose range finding, 7 days oral gavage; details: for average weight loss at the end of the experiment: 7 days; for MTD at 7 days: BALB/c, mouse, in vivo, oral
Excerpt: The primary objective of the dose range finding study is to establish the maximum tolerated dose (MTD) as determined by parameters such as clinical signs and reductions in body weight and food consumption, and to provide the data for appropriate dose selection in subsequent regulatory toxicology studies.

[14] = Cytotoxicity, Human Monocytic Cell Line THP1; type: cell-based
Excerpt: as §1

[15] = target: Aurora B kinase (Homo sapiens, UniProt Q96GD4); assay: Early toxicity: Aurora B kinase inhibition; type: biochemical; details: Table 5
[16] = tested on: Salmonella TA98 (frameshift mutations); type: cell-based
Experimental: The test has been performed in duplicate as separate experiments (Table 9). Two different Salmonella strains were tested; TA98 (frameshift mutations) and TA100 (base pair substitutions, primarily at one of the GC pairs). Values above 15 represent genotoxicity.

[17] = Human microsomal stability; type: in vitro ADME
Experimental: Furthermore, compound 19 is stable in human hepatic microsomes (samples were taken at 0, 5, 15, 30, 45 minutes) (Table 8), while the human plasma stability is 99.7% (samples were taken at 0, 15, 30, 45, 60, 120 minutes).

[18] = Table 5, read-out: Avg % inhibition CYP3A4
[19] = mean ± SD, Table 4a, read-out: % inhibition CYP3A4
[20] = BALB/c (Compound 19), NMRI (miltefosine), mouse, in vivo, po, 20 mg/kg
[21] = BALB/c, mouse, in vivo, po, 20 mg/kg

CCCCCCCCCCCCCCCCOP(=O)([O-])OCC[N+](C)(C)C [Miltefosine, hexadecylphosphocholine, reference compound]
inhibition of the activity of HDAC6 ([1]; 10 μM): did not inhibit | inhibition at 10 µM [2, 18]: 8.39 ± 8.99% | inhibition at 10 µM [2, 19]: 8.39 ± 8.99% | Hemolysis at 100 μM (%) ([3]; 100 μM): 96.1% | Hemolysis, HC50 [3]: 38.3 ± 2.8 µM | infection outcome (words) [4]: no in vivo activity | infection outcome (words) ([4]; listed as miltefosine): did not work at all | Ang % Toxicity Mitochondria ([5]; 10 μM): 3.99 ± 8.95 (10 μM) % | % mitochondrial toxicity ([5]; at 1 μM): 3.39 ± 8.95% | IC50 [6]: 12.7 ± 3.3 µM | inhibition at 10 µM [7]: -16.9 ± 7.34% | inhibition of the activity of HDAC4 ([8]; 10 μM): did not inhibit | inhibition at 10 µM [9]: 30.8 ± 16.7% | Avg % inhibition CYP2C9 ([10]; 10 μM, Table 5): −0.80 ± 38.33 (10 μM) % | % inhibition CYP2C9 ([10]; 10 μM, mean ± SD, Table 4a): −0.8 ± 38.32% | Flag for Interference, hERG [11]: (no) | AUC(0-inf) [12, 20]: 2.4e+06 ng·h/mL and 5960 µM·h | Cmax [12, 20]: 30600 ng/mL and 75.1 µM | Tmax [12, 20]: 24 h | half-life [12, 20]: 43.3 ± 5.5 h | Ke (h − 1) ([12]; BALB/c, mouse, in vivo, 20 mg/kg): 0.016 ± 0.002 h − 1 | AUC(0-inf) [12, 21]: 2.4e+06 ng·h/mL and 5960 µM·h | Cmax [12, 21]: 30600 ng/mL and 75.1 µM | Tmax [12, 21]: 24 h | half-life [12, 21]: 43.3 ± 5.5 h | average weight loss at the end of the experiment ([13]; 50 mg/kg daily oral gavage): 11±3% | food intake compared to the equivalent treatment of compound 19 ([13]; 100 mg/kg): significant lesser food intake | day from which weight loss was significant ([13]; 100 mg/kg daily oral gavage): 4 days | average weight loss at the end of the experiment ([13]; 100 mg/kg daily oral gavage): 19±6% | MTD at 7 days [13]: 50 mg/kg | CC50 [14]: 28.6 ± 2.48 µM

C[N+](C)(C)CCOP(=O)([O-])OCCCCCC1CCCCCCCCCCCCCC1 [Compound 19, 5-cyclopentadecylpentyl (2-(trimethylammonio)ethyl) phosphate]
inhibition of the activity of HDAC6 ([1]; 100 μM): does not inhibit | inhibition at 10 µM [2, 18]: -17.6 ± 8.89% | inhibition at 10 µM [2, 19]: 17.6 ± 8.89% | percentage of hemolytic activity lower than miltefosine ([3]; 100 μM): approximately 11 fold | Hemolysis at 100 μM (%) ([3]; 100 μM): 8.7% | Hemolysis, HC50 [3]: >100 µM | inhibition at 10 µM [15]: -9.92 ± 8.99% | infection outcome (words) [4]: eliminated the infection; also recorded: full clearance of infection | relapse after treatment ([4]; 3 weeks after treatment, also after cyclophosphamide immune suppression): no relapse was detected | % mitochondrial toxicity ([5]; 10 μM, 100% mitotoxic, 0% not mitotoxic): −3.22 ± 5.44% | Ang % Toxicity Mitochondria ([5]; 10 μM): −3.22 ± 5.44 (10 μM) % | Ames mutagenicity TA98 (values above 15 represent genotoxicity) ([16]; 3.125 μM): 11.0 ± 8.48 | Ames mutagenicity TA98 (values above 15 represent genotoxicity) ([16]; 6.25 μM): 13.0 ± 2.83 | Ames mutagenicity TA98 (values above 15 represent genotoxicity) ([16]; 12.5 μM): 12.5 ± 4.95 | Ames mutagenicity TA98 (values above 15 represent genotoxicity) ([16]; 25 μM): 6.5 ± 3.53 | Ames mutagenicity TA98 (values above 15 represent genotoxicity) ([16]; 50 μM): 11 ± 2.82 | Ames mutagenicity TA98 (values above 15 represent genotoxicity) ([16]; 100 μM): 11.0 ± 1.41 | mutagenicity, TA98 ([16]; up to 100 μM): does not exhibit mutagenicity | Degradation non NADPH dependent (%) ([17]; human microsomes): 0% | Human microsomal Metabolic stability (%) ([17]; samples at 0, 5, 15, 30, 45 minutes): 100% | IC50 [6]: 24 ± 3.8 µM | inhibition of the activity of HDAC4 ([8]; 100 μM): does not inhibit | inhibition at 10 µM [9]: -50.7 ± 3.45% | inhibition at 10 µM ([10]; human, mean ± SD, Table 4a): -17.5 ± 2.31% | Cmax in plasma relative to the EC50 for L. infantum in vitro ([12]; 20 mg/kg oral gavage): 10 fold | AUC(0-inf) ([12]; BALB/c (Compound 19), NMRI (miltefosine), mouse, plasma, healthy mice, 20 mg/kg oral gavage, Table 10, read-out: AUC (0-∞)): 967 ± 471 µg·h/mL | AUC(0-inf) ([12]; BALB/c (Compound 19), NMRI (miltefosine), mouse, plasma, healthy mice, 20 mg/kg oral gavage, Table 10, read-out: AUC (0-∞) (μM h/mL)): 2090 µM·h | Cmax ([12]; BALB/c (Compound 19), NMRI (miltefosine), mouse, plasma, healthy mice, 20 mg/kg oral gavage, Table 10, read-out: Cmax): 33.4 µM | Cmax ([12]; BALB/c (Compound 19), NMRI (miltefosine), mouse, plasma, healthy mice, 20 mg/kg oral gavage, Table 10, read-out: Cmax (μg/mL)): 15.4 ± 9.3 µg/mL | half-life ([12]; BALB/c (Compound 19), NMRI (miltefosine), mouse, plasma, healthy mice, 20 mg/kg oral gavage, Table 10, read-out: t1/2 (converted)): 17.4 ± 4.2 h | Tmax ([12]; BALB/c (Compound 19), NMRI (miltefosine), mouse, healthy mice, 20 mg/kg oral gavage, plasma, Table 10, read-out: tmax): 24 h | Ke (h − 1) ([12]; healthy BALB/c mice, 20 mg/kg gavage, Table 13): 0.049 h − 1 | Ke ([12]; healthy mice, 20 mg/kg oral gavage, Table 10): 0.049 h⁻¹ | AUC(0-inf) ([12]; mouse, plasma, po, healthy BALB/c mice, 20 mg/kg gavage, Table 13, read-out: AUC (0-∞)): 967 ± 471 µg·h/mL | AUC(0-inf) ([12]; mouse, plasma, po, healthy BALB/c mice, 20 mg/kg gavage, Table 13, read-out: AUC (0-∞) (μM h/mL)): 2090 µM·h | Cmax ([12]; mouse, plasma, po, healthy BALB/c mice, 20 mg/kg gavage, Table 13, read-out: Cmax): 33.4 µM | Cmax ([12]; mouse, plasma, po, healthy BALB/c mice, 20 mg/kg gavage, Table 13, read-out: Cmax (μg/mL)): 15.4 ± 9.3 µg/mL | Tmax ([12]; mouse, plasma, po, healthy BALB/c mice, 20 mg/kg gavage, Table 13, read-out: tmax): 24 h | half-life ([12]; mouse, plasma, po, healthy BALB/c mice, 20 mg/kg gavage, Table 13, read-out: t½ (converted)): 17.4 ± 4.2 h | average weight loss at the end of the experiment ([13]; 50 mg/kg daily oral gavage): 7±8% | day from which weight loss was significant ([13]; 100 mg/kg daily oral gavage): 5 days | average weight loss at the end of the experiment ([13]; 100 mg/kg daily oral gavage): 11±4% | MTD at 7 days [13]: 100 mg/kg | CC50 ([14]; human monocytic cell line THP1, read-out: Cytotoxicity-Human Monocytic Cell Line THP1 CC50 ± SD): > 500 µM
